This is an account of results in ChEMBL document CHEMBL1800005, “Synthesis and biological activity of a series of tetrasubstituted-imidazoles as P2X(7) antagonists” (Bioorg Med Chem Lett, 2010).

In series [1] the target is T1, P2X purinoceptor 7 (Homo sapiens, UniProt Q99572).
T1 sequence (Q99572 whole entry): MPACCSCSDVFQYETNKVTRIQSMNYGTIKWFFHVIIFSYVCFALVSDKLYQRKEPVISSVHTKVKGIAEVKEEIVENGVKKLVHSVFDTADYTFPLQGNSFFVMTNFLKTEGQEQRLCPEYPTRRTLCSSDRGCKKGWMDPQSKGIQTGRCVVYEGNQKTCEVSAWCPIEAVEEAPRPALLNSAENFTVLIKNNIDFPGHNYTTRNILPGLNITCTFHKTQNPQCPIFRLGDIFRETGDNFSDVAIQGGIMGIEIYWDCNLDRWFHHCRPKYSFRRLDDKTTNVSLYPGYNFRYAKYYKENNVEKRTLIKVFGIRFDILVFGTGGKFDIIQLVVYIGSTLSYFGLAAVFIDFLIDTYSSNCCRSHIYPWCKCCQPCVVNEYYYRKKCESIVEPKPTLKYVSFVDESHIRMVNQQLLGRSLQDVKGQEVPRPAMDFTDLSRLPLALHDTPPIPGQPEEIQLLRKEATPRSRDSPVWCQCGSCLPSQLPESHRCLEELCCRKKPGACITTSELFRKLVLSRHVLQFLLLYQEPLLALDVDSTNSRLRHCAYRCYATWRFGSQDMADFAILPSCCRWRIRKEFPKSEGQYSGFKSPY
Briefly: Antagonist activity at human recombinant P2X7 receptor expressed in HEK293 cells by ethidium bromide […] assay. In kind it is functional, cell-based.

In series [2] the target is T2, P2X purinoceptor 7 (Rattus norvegicus, UniProt Q64663).
T2 sequence (Q64663 whole entry): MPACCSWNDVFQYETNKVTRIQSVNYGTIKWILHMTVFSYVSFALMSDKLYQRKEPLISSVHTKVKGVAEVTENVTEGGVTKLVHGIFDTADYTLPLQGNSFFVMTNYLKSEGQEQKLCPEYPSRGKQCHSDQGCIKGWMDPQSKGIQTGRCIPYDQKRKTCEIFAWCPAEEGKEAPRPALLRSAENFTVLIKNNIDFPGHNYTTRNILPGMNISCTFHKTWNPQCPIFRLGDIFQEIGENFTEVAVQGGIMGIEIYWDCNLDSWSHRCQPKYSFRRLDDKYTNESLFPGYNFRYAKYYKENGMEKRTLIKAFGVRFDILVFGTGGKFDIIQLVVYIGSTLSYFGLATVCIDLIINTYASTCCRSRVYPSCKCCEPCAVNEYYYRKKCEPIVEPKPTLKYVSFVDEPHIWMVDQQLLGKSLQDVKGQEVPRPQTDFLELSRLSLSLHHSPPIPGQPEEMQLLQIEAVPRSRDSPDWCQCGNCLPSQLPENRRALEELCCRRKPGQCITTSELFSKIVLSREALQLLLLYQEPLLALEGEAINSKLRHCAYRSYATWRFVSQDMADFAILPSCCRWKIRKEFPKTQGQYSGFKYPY
Briefly: Antagonist activity at rat recombinant P2X7 receptor expressed in HEK293 cells by ethidium bromide […] assay. In kind it is functional, cell-based.

Series [3] in a line: Solubility of compound in fed state simulated intestinal fluid at pH 5 after 1 hr. The class given is physicochemical.
Series [4] in a line: Solubility of compound in fasted state simulated intestinal fluid at pH 6.5 after 1 hr. The class given is physicochemical.
A short description of series [5]: Solubility of compound in simulated gastric fluid at pH 1.2 after 1 hr. In kind it is physicochemical.
For the next series, the target named is Albumin (Homo sapiens, UniProt P02768). Briefly: Protein binding in human serum albumin. The class given is ADME. Conditions: read-out: PB.
Sequence of Albumin (P02768 whole entry): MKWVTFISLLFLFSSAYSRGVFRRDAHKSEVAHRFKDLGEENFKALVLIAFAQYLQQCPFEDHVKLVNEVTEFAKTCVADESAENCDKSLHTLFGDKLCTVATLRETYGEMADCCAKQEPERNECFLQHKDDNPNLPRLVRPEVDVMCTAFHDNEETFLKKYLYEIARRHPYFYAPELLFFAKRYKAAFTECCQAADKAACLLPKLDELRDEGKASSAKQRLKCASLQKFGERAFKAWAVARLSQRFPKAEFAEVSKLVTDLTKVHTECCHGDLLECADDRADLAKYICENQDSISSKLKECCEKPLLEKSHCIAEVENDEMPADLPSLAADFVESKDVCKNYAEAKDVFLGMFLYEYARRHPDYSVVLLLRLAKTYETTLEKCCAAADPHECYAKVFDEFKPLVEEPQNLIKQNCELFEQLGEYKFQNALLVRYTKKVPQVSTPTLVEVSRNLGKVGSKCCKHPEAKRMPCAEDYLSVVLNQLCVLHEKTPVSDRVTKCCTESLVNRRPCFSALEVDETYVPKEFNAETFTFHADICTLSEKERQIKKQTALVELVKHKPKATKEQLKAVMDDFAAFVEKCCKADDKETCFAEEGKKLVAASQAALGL
The target of the next series is Cytochrome P450 3A4 (Homo sapiens, UniProt P08684). Briefly: Inhibition of CYP3A4 using diethoxyflourescein as a substrate. The class given is ADME.
Sequence of Cytochrome P450 3A4 (P08684 whole entry): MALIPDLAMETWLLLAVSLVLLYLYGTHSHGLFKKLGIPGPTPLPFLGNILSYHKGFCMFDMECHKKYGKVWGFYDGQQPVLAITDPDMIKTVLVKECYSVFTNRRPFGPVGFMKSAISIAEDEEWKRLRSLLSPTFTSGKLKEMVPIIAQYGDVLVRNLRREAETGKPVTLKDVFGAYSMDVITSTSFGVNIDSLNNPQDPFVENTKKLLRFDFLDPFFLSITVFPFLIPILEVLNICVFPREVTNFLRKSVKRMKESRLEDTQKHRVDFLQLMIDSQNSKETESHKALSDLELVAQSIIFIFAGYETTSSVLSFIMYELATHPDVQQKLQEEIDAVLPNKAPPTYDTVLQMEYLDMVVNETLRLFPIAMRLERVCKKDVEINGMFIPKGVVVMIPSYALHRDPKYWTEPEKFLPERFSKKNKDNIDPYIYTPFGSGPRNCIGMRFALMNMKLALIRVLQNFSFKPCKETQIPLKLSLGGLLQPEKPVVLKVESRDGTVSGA
The target of the next series is T3, Cytochrome P450 1A2 (Homo sapiens, UniProt P05177).
T3 sequence (P05177 whole entry): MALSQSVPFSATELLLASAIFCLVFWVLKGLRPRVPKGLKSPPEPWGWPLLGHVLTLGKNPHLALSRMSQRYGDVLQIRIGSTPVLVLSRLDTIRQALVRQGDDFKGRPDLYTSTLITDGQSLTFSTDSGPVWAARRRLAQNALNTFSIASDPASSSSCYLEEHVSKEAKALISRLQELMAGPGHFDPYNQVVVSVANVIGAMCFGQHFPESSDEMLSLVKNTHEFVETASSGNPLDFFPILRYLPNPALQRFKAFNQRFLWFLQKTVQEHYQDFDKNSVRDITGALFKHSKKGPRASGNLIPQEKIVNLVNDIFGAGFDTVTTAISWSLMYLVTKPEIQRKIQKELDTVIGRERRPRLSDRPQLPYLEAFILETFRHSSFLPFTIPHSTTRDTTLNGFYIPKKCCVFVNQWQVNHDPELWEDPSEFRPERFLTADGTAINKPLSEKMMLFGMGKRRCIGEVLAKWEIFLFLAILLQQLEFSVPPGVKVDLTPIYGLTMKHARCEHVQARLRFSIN
In words: Inhibition of CYP1A2. In kind it is ADME.

Another series addresses Cytochrome P450 2C9 (Homo sapiens, UniProt P11712). Briefly: Inhibition of CYP2C9. In kind it is ADME.
In the next series the target is Cytochrome P450 2C19 (Homo sapiens, UniProt P33261). In words: Inhibition of CYP2C19. The class given is ADME.
Sequence of Cytochrome P450 2C19 (P33261 whole entry): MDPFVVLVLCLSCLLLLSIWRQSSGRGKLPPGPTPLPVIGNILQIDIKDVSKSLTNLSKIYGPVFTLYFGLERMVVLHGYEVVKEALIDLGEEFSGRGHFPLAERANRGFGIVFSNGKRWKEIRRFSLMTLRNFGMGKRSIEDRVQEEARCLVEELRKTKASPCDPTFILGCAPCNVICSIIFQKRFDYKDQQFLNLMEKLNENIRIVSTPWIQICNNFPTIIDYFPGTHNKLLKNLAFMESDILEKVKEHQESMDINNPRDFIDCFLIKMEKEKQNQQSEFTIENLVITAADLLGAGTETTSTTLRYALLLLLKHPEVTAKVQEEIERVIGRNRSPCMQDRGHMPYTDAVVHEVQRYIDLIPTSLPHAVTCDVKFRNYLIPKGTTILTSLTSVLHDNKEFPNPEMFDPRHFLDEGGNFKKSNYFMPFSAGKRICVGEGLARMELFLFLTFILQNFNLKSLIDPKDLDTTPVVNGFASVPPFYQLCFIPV
A further series concerns the target Cytochrome P450 2D6 (Homo sapiens, UniProt P10635). In words: Inhibition of CYP2D6. In kind it is ADME.
The nature of series [6]: Dissociation constant, pKa of the compound. In kind it is physicochemical.
Series [7] can be described thus: Cmax in rat at 3 mg/kg, po. In kind it is ADME, organism-based. On the set-up: dose 3 mg/kg, route oral. Conditions: in vivo.
The next series concerns Rattus norvegicus. Briefly: Dose normalized AUC (0 to 6 hrs) in rat at 3 mg/kg, po. Conditions: in vivo. The class given is ADME, organism-based. On the set-up: dose 3 mg/kg, route oral.
The nature of series [8]: Tmax in rat at 3 mg/kg, po. The class given is ADME, organism-based. On the set-up: dose 3 mg/kg, route oral. As to conditions: in vivo.
Series [9] can be described thus: Solubility of the compound in water after 1 hr. The class given is physicochemical.

Structures are written as SMILES. Values after ≈ are worked out from the molar mass of the structure shown. Where only a bound is given, the exact number is not on record here.

Sequence of Cytochrome P450 2D6 (P10635 whole entry): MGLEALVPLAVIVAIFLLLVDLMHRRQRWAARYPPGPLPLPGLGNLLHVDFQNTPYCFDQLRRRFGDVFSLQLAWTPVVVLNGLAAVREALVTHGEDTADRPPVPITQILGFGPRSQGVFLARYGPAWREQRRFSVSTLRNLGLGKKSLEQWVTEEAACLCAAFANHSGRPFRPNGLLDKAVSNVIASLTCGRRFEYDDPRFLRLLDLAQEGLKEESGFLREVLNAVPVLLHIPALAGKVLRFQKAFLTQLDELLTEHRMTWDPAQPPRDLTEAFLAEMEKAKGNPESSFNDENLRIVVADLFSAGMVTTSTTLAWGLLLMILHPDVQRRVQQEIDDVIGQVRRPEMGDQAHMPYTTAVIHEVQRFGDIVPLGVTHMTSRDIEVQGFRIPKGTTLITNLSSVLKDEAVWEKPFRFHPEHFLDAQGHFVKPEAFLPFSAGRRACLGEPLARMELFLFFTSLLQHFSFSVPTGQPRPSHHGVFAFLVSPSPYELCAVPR
Sequence of Cytochrome P450 2C9 (P11712 whole entry): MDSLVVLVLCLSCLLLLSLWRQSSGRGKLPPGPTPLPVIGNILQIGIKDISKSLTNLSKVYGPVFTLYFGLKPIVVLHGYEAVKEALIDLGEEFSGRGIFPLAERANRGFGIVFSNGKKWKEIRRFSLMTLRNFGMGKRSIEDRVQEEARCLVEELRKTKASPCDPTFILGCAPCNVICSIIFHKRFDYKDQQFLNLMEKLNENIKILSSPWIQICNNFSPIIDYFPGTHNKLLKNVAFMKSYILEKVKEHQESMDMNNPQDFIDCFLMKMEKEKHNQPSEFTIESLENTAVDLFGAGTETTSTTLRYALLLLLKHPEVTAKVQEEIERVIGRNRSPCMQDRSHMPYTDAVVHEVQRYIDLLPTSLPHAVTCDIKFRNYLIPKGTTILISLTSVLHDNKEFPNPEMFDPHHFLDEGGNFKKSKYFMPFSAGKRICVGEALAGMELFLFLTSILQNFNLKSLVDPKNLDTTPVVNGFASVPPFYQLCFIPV

The IC50 is the concentration that inhibits the measured activity by half. For `Cc1nc(-c2ccccc2)n(C)c1CC(=O)NCc1ccc(F)cc1Cl`, the figures for the IC50 at P2X purinoceptor 7 [1] and at P2X purinoceptor 7 [2] were 39.8 nM and 251 nM, respectively.
In general, solubility refers to the dissolved amount per volume that the medium holds. Low readings indicate a poorly soluble substance, high ones a readily soluble substance. Consider `Cc1nn(-c2ccccc2)c(C)c1CC(=O)NCc1ccc(F)cc1Cl`, for which the figures for the solubility at 1 h in [3], in series [4] and in series [5] were 100 µg/mL (≈ 269 µM), 120 µg/mL (≈ 323 µM) and 410 µg/mL (≈ 1100 µM), respectively.
In general, pKa refers to the pH at which an ionisable group is half protonated. A low value points to a stronger acid or weaker base. Regarding `Cc1nc(-c2ccc(F)cc2F)n(C)c1CC(=O)NCc1ccc(F)cc1Cl` [listing 1 of 2 here], the fraction unbound on Albumin stood at 0.09. Besides, the IC50 was 5500 nM against Cytochrome P450 3A4; more than 10000 nM at Cytochrome P450 1A2; more than 10000 nM at Cytochrome P450 2C9; more than 10000 nM against Cytochrome P450 2C19; more than 10000 nM against Cytochrome P450 2D6. For the same compound, the pKa in [6] was found to be 6.47.
On to `CCn1c(-c2ccccc2)nc(C)c1CC(=O)NCc1ccc(F)cc1Cl`, for which the IC50 on P2X purinoceptor 7 [1] is 100 nM; at P2X purinoceptor 7 [2] it was 158 nM.
Take `Cc1nc(-c2ccccc2)n(C)c1CC(=O)NCc1cccc(Cl)c1C`: the IC50 at P2X purinoceptor 7 [1] is 50.1 nM; on P2X purinoceptor 7 [2], 1580 nM.
For the compound `CCn1c(-c2ccccc2)nc(C)c1CC(=O)NCc1cccc(Cl)c1C`, the IC50 at P2X purinoceptor 7 [1] is 50.1 nM; on P2X purinoceptor 7 [2], 631 nM.
Turning to `Cc1cccc(Cl)c1CNC(=O)Cc1c(C)nc(-c2ccccc2)n1C`, the concentration for half-maximal inhibition (IC50) on P2X purinoceptor 7 [1] was 50.1 nM; on P2X purinoceptor 7 [2] it was 3160 nM.
Regarding `CCn1c(-c2ccccc2)nc(C)c1CC(=O)NCc1c(C)cccc1Cl`, the IC50 on P2X purinoceptor 7 [1] is 50.1 nM; at P2X purinoceptor 7 [2], 501 nM.
Taken in the same sequence, the figures for `Cc1nc(-c2ccccc2)n(C)c1CC(=O)NCc1ccc(F)c(F)c1F` were 100 nM and 5010 nM.
Taken in the same sequence, the figures for `CCn1c(-c2ccccc2)nc(C)c1CC(=O)NCc1ccc(F)c(F)c1F` were 158 nM and 3980 nM.
As usually defined, the Cmax is the highest concentration seen after dosing. A word on the Tmax: it is the time at which the peak concentration occurs. Take `Cc1nc(-c2ccc(F)cc2F)n(C)c1CC(=O)NCc1ccc(F)cc1Cl` [listing 2 of 2 here]: the IC50 on P2X purinoceptor 7 [1] was 39.8 nM; at P2X purinoceptor 7 [2], 316 nM. Also, the solubility at 1 h in series [3] is 900 µg/mL (≈ 2210 µM); in series [4] it was 370 µg/mL (≈ 907 µM); in series [5] it was more than 1000 µg/mL; in series [9], 920 µg/mL (≈ 2260 µM). In series [7], this compound yielded a Cmax of 430 nM. Besides, in the series on Rattus norvegicus, the AUC/dose is 6.8 kg·min/L. Besides, in series [8], the Tmax turned out to be 30 min.
`CCn1c(-c2ccc(F)cc2F)nc(C)c1CC(=O)NCc1ccc(F)cc1Cl`: the figures for the IC50 at P2X purinoceptor 7 [1] and at P2X purinoceptor 7 [2] were 100 nM and 158 nM, respectively.
On the same counts, the results for `Cc1nc(-c2ccc(F)cc2F)n(C)c1CC(=O)NCc1cccc(Cl)c1C` are 31.6 nM and 631 nM.
Taken in the same sequence, the figures for `CCn1c(-c2ccc(F)cc2F)nc(C)c1CC(=O)NCc1cccc(Cl)c1C` were 39.8 nM and 398 nM.
Taken in the same sequence, the figures for `CCn1c(-c2ccc(F)cc2F)nc(C)c1CC(=O)NCc1c(C)cccc1Cl` were 50.1 nM and 631 nM.
Consider `Cc1nc(-c2ccc(F)cc2F)n(C)c1CC(=O)NCc1ccc(F)c(F)c1F`, for which the IC50 on P2X purinoceptor 7 [1] was 63.1 nM; at P2X purinoceptor 7 [2] it was more than 10000 nM.
Taken in the same sequence, the figures for `CCn1c(-c2ccc(F)cc2F)nc(C)c1CC(=O)NCc1ccc(F)c(F)c1F` were 126 nM and 1000 nM.
On to `Cn1c(CC(=O)NCc2ccc(F)cc2Cl)cnc1-c1ccc(F)cc1F`, for which the IC50 is 200 nM at P2X purinoceptor 7 [1] and 251 nM on P2X purinoceptor 7 [2].
On the same counts, the results for `CCn1c(CC(=O)NCc2ccc(F)cc2Cl)cnc1-c1ccc(F)cc1F` are 501 nM and 398 nM.
Taken in the same sequence, the figures for `Cc1c(Cl)cccc1CNC(=O)Cc1cnc(-c2ccc(F)cc2F)n1C` were 63.1 nM and 631 nM.
